Assays:
[1] = refractive index (Na D-line) (dimensionless); wn = mass fraction of the nth substance listed; details: 100 kPa, Liquid, Standard Abbe refractometry
[2] = refractive index (Na D-line) (dimensionless); details: 100 kPa, Liquid, Standard Abbe refractometry

[Ca+2].[Cl-].[Cl-] [calcium chloride] + O
refractive index, [1]
Details | 293.15 K | 298.15 K | 303.15 K | 308.15 K | 313.15 K | 318.15 K
w1 = 0.01 | 1.3356 | 1.3353 | 1.3349 | 1.3344 | 1.3339 | 1.3331
w1 = 0.05 | 1.3442 | 1.3437 | 1.3431 | 1.3426 | 1.342 | 1.3414
w1 = 0.1 | 1.3568 | 1.3561 | 1.3555 | 1.3551 | 1.3546 | 1.3539
w1 = 0.15 | 1.3689 | 1.3686 | 1.368 | 1.3671 | 1.3667 | 1.3662
w1 = 0.2 | 1.3818 | 1.3814 | 1.3807 | 1.3802 | 1.3795 | 1.3789
w1 = 0.25 | 1.3945 | 1.3943 | 1.394 | 1.3933 | 1.3926 | 1.392

CCOC(C)=O [ethyl acetate] + O
refractive index, [1]
Details | 293.15 K | 298.15 K | 303.15 K | 308.15 K | 313.15 K | 318.15 K
w1 = 0.009 | 1.3341 | 1.3335 | 1.3331 | 1.3327 | 1.3321 | 1.3317
w1 = 0.027 | 1.3352 | 1.3348 | 1.3342 | 1.3337 | 1.3332 | 1.3326
w1 = 0.045 | 1.3368 | 1.3364 | 1.3358 | 1.3353 | 1.3346 | 1.3342
w1 = 0.064 | 1.3384 | 1.338 | 1.3377 | 1.3368 | 1.3358 | 1.3352
w1 = 0.082 | 1.3391 | 1.3388 | 1.3383 | 1.3378 | 1.3373 | 1.3365

[Cl-].[K+] [potassium chloride] + O
refractive index, [1]
Details | 293.15 K | 298.15 K | 303.15 K | 308.15 K | 313.15 K | 318.15 K
w1 = 0.01 | 1.3349 | 1.3345 | 1.334 | 1.3335 | 1.333 | 1.332
w1 = 0.05 | 1.3405 | 1.3401 | 1.3396 | 1.339 | 1.3384 | 1.3379
w1 = 0.1 | 1.3486 | 1.348 | 1.3476 | 1.347 | 1.3464 | 1.346
w1 = 0.15 | 1.3577 | 1.3571 | 1.3566 | 1.356 | 1.3554 | 1.355

[Cl-].[Na+] [sodium chloride] + O
refractive index, [1]
Details | 293.15 K | 298.15 K | 303.15 K | 308.15 K | 313.15 K | 318.15 K
w1 = 0.01 | 1.3365 | 1.3359 | 1.3354 | 1.3346 | 1.3339 | 1.3333
w1 = 0.05 | 1.3434 | 1.3428 | 1.3422 | 1.3414 | 1.3407 | 1.3398
w1 = 0.1 | 1.3521 | 1.3514 | 1.3508 | 1.3502 | 1.3495 | 1.3485
w1 = 0.15 | 1.361 | 1.3604 | 1.3596 | 1.359 | 1.358 | 1.3572
w1 = 0.2 | 1.3702 | 1.3692 | 1.3683 | 1.3678 | 1.367 | 1.3661
w1 = 0.25 | 1.3795 | 1.3788 | 1.378 | 1.3773 | 1.3767 | 1.3757

O [water]
[2]
Details | refractive index
293.15 K | 1.3335
298.15 K | 1.333
303.15 K | 1.3323
308.15 K | 1.332
313.15 K | 1.3316
318.15 K | 1.3312

O [water] + CCOC(C)=O
[1], w2 = 0
Details | refractive index
293.15 K | 1.3335
298.15 K | 1.333
303.15 K | 1.3323
308.15 K | 1.332
313.15 K | 1.3316
318.15 K | 1.3312

O [water] + OC[C@H]1O[C@H](O)[C@H](O)[C@@H](O)[C@@H]1O
[1], w2 = 0
Details | refractive index
293.15 K | 1.3335
298.15 K | 1.333
303.15 K | 1.3323
308.15 K | 1.332
313.15 K | 1.3316
318.15 K | 1.3312

O [water] + [Ca+2].[Cl-].[Cl-]
[1], w2 = 0
Details | refractive index
293.15 K | 1.3335
298.15 K | 1.333
303.15 K | 1.3323
308.15 K | 1.332
313.15 K | 1.3316
318.15 K | 1.3312

O [water] + [Cl-].[K+]
[1], w2 = 0
Details | refractive index
293.15 K | 1.3335
298.15 K | 1.333
303.15 K | 1.3323
308.15 K | 1.332
313.15 K | 1.3316
318.15 K | 1.3312

O [water] + [Cl-].[Na+]
[1], w2 = 0
Details | refractive index
293.15 K | 1.3335
298.15 K | 1.333
303.15 K | 1.3323
308.15 K | 1.332
313.15 K | 1.3316
318.15 K | 1.3312

OC[C@H]1O[C@H](O)[C@H](O)[C@@H](O)[C@@H]1O [α-D-glucose] + O
refractive index, [1]
Details | w1 = 0.01 | w1 = 0.05 | w1 = 0.1 | w1 = 0.15 | w1 = 0.2 | w1 = 0.3 | w1 = 0.4 | w1 = 0.5
293.15 K | 1.336 | 1.3412 | 1.3481 | 1.3553 | 1.3623 | 1.3775 | 1.3947 | 1.4119
298.15 K | 1.3355 | 1.3406 | 1.3475 | 1.3548 | 1.3617 | 1.3768 | 1.3939 | 1.4106
303.15 K | 1.3349 | 1.3401 | 1.3469 | 1.3542 | 1.361 | 1.3763 | 1.3932 | 1.41
308.15 K | 1.3345 | 1.3395 | 1.3463 | 1.3535 | 1.3604 | 1.3757 | 1.3925 | 1.4098
313.15 K | 1.3337 | 1.3388 | 1.3455 | 1.3527 | 1.3596 | 1.3747 | 1.3919 | 1.4086
318.15 K | 1.3329 | 1.3379 | 1.3447 | 1.3519 | 1.3588 | 1.3739 | 1.3907 | 1.4073

From the NIST ThermoML archive (doi:10.1021/acs.jced.5b00018)
